ChEMBL document CHEMBL3400048, “N-acylated sulfonamide congeners of fosmidomycin lack any inhibitory activity against DXR” (Bioorg Med Chem Lett, 2015)
Activity calls are given as the source filed them. The rule behind the calls is not given here.

Experiments:
MRC5 = assay: Cytotoxicity against human MRC5 cells at 64 uM; type: cell-based; conditions: mrc5, 64 µM
Trypanosoma cruzi = assay: Antimicrobial activity against Trypanosoma cruzi at 64 uM; type: functional, organism-based
Plasmodium falciparum = assay: Antimicrobial activity against Plasmodium falciparum K1 at 64 uM; type: functional, organism-based
Aspergillus fumigatus = assay: Antimicrobial activity against Aspergillus fumigatus at 64 uM; type: functional, organism-based
Candida albicans = assay: Antimicrobial activity against Candida albicans at 64 uM; type: functional, organism-based
Pseudomonas aeruginosa = assay: Antimicrobial activity against Pseudomonas aeruginosa at 64 uM; type: functional, organism-based
Staphylococcus aureus = assay: Antimicrobial activity against Staphylococcus aureus at 64 uM; type: functional, organism-based
Trypanosoma brucei = assay: Antimicrobial activity against Trypanosoma brucei at 64 uM; type: functional, organism-based
Escherichia coli = assay: Antimicrobial activity against Escherichia coli at 64 uM; type: functional, organism-based
Leishmania infantum = assay: Antimicrobial activity against Leishmania infantum at 64 uM; type: functional, organism-based
[1] = biological target: T1, 1-deoxy-D-xylulose 5-phosphate reductoisomerase (Escherichia coli K-12) (UniProt P45568); assay: Inhibition of Escherichia coli DXR activity using DXP as substrate assessed as residual activity preincubated at 100 uM for 5 mins before substrate addition measured every 3 seconds for 180 seconds by spectrophotometric assay
T1 sequence (whole entry): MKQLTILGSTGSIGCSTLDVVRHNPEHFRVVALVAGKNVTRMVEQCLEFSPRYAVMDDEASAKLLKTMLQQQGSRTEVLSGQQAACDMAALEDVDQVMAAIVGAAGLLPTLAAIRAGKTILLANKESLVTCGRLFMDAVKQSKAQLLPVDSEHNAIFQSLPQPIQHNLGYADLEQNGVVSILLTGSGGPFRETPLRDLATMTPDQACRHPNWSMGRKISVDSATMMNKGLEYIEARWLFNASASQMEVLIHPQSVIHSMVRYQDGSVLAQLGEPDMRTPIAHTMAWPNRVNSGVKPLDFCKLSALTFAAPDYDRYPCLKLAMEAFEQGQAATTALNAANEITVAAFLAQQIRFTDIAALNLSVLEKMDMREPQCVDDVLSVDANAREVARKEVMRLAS

Trichophyton rubrum = assay: Antimicrobial activity against Trichophyton rubrum at 64 uM; type: functional, organism-based

Row | Activity [1] | Structure (SMILES) | Activity (MRC5) | Activity (Trypanosoma cruzi) | Activity (Plasmodium falciparum) | Activity (Aspergillus fumigatus) | Activity (Candida albicans) | Activity (Pseudomonas aeruginosa) | Activity (Staphylococcus aureus) | Activity (Trypanosoma brucei) | Activity (Escherichia coli) | Activity (Leishmania infantum) | Activity (Trichophyton rubrum)
1 | 100% | CC(=O)NS(=O)(=O)CCCN(O)C(C)=O | Non-toxic | inactive | inactive | inactive | inactive | inactive | inactive | inactive | inactive | inactive | inactive
2 | 100% | CC(=O)N(O)CCCS(=O)(=O)NC(=O)Cc1ccccc1 | Non-toxic | inactive | inactive | inactive | inactive | inactive | inactive | inactive | inactive | inactive | inactive
3 | 100% | CC(=O)N(O)CCCS(=O)(=O)NC(=O)CCc1ccccc1 | Non-toxic | inactive | inactive | inactive | inactive | inactive | inactive | inactive | inactive | inactive | inactive
4 | 100% | CC(=O)N(O)CCCS(=O)(=O)NC(=O)c1ccccc1 | Non-toxic | inactive | inactive | inactive | inactive | inactive | inactive | inactive | inactive | inactive | inactive
